Data on seven compounds can be found in patent publication US8476267B2, “Imidazo-, pyrazolopyrazines and imidazotriazines and their use” (Bayer Intellectual Property GmbH, priority 2007, dated 2013).

This assay concerns the target GSK3β (Homo sapiens (Human), UniProt P49841). The assay can be described thus: In vitro biochemical GSK3β inhibition assay (fluorescence, NADH-coupled). To be noted: 5 nM GSK3β, 40 μM substrate GSM, 50 μM ATP, 30° C., 2 hours. On the procedure: The inhibitory activity of active substances is determined in a biochemical assay. The ingredients required for this purpose are mixed in a black 384-well microtiter plate with transparent base (from Greiner, catalog number 781092). The requirements in this connection for each well of the 384-well microtiter plate are 5 nM GSK3β (from Upstate, catalog number xy), 40 μM GSK3β substrate GSM (sequence H-RRRPASVPPSPSLSRHS-(pS)-HQRR, from Upstate, catalog number 2-533), 30 μM nicotinamide adenine dinucleotide NADH (Roche Diagnostics, catalog number 10107735), 50 μM adenosine triphosphate ATP (from Sigma, catalog number A7966) and 2 mM phosphoenolpyruvate (from Roche, catalog number 128112). The required reaction buffer in which the biochemical reaction takes place consists of 50 mM Trizma hydrochloride Tris-HCl pH: 7.5 (from Sigma, catalog number T3253), 5 mM magnesium chloride MgCl2 (from Sigma, catalog number M8266), 0.2 mM DL-dithiothreitol DTT (from Sigma, catalog number D9779), 2 mM ethylenediaminetetraacetic acid EDTA (from Sigma, catalog number E6758), 0.01% Triton X-100 (from Sigma, catalog number T8787) and 0.05% bovine serum albumin BSA (from Sigma, catalog number B4287).
Active substances are dissolved in dimethyl sulfoxide DMSO (from Sigma, catalog number D8418) in a concentration of 10 mM. Active substances are added in serial concentrations of 10 μM, 1 μM, 0.1 μM, 0.01 μM, 0.001 μM, 0.0001 μM, 0.00001 μM, 0.000001 μM to the mixtures of the biochemical reaction. As control, dimethyl sulfoxide is added instead of substance in a final concentration of 0.1%.
The reaction is incubated at 30° C. for 2 hours and then the resulting fluorescence is measured in a Tecan Safire-XFLUOR4 instrument, version V4.50 (serial number 12901300283) with the specifications: measurement mode—fluorescence measured from below, extinction wavelength 340 nm, emission wavelength 465 nm, slit width extinction 5 nm, slit width emission 5 nm, gain mode 120, delay 0 μs, number of light flashes per measurement 3, and an integration time of 40 μs.
The activity of the active substances is calculated in relation to these 0% and 100%.

Counter-ions that a name gives are not always drawn.

Sequence of GSK3β (P49841 whole entry, species assumed): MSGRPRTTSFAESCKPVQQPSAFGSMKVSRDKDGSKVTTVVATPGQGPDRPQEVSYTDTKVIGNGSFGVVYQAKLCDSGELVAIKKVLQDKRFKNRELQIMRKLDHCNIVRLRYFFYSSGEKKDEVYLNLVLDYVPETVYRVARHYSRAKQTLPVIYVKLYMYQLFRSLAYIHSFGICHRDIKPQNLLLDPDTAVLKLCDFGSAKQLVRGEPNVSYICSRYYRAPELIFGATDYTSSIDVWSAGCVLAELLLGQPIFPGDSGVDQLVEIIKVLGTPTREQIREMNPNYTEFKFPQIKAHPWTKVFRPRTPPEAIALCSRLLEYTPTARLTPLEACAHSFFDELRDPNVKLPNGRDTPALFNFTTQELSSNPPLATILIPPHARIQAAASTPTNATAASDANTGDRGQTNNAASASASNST

Turning to `CN1CCN(CCNC(=O)c2cc3c(NCCNc4ccc(C#N)cn4)nc(-c4ccc(Cl)cc4Cl)cn3n2)CC1` [Example 5], the half-inhibitory concentration (IC50) (usually the concentration that gives 50% inhibition) is 0.03 µM. The result for `N#Cc1sc(NCCNc2nc(-c3ccc(Cl)cc3Cl)cn3nc(C(=O)NCC(=O)O)cc23)nc1N` [Example 24] reads 0.005 µM; that for `CCOC(=O)c1cc2c(N3CCCC(Nc4nc(N)c(C(C)=O)s4)C3)nc(-c3ccc(Cl)cc3Cl)cn2n1` (stereo not shown) [Example 17, Ethyl 4-{3-[(5-acetyl-4-amino-1,3-thiazol-2-yl)amino]piperidin-1-yl}-6-(2,4-dichlorophenyl)pyrazolo[1,5-a]pyrazine-2-carboxylate trifluoroacetate], 0.008 µM; that for `N#Cc1ccc(NCCNc2nc(-c3ccc(Cl)cc3Cl)cn3nc(CNC4CC4)cc23)nc1` [Example 58], 0.08 µM. The result for `N#Cc1sc(NC2CCCN(c3nc(-c4ccc(Cl)cc4Cl)cn4nc(C(=O)O)cc34)C2)nc1N` (stereo not shown) [Example 19] reads 0.003 µM; that for `N#Cc1ccc(NCCNc2nc(-c3ccc(Cl)cc3Cl)cn3nc(C(=O)O)cc23)nc1` [Example 4, 4-({2-[(5-Cyanopyridin-2-yl)amino]ethyl}amino)-6-(2,4-dichlorophenyl)pyrazolo[1,5-a]pyrazine-2-carboxylic acid hydrochloride], 0.021 µM.

The compound `Cc1nc(C)n2nc(-c3ccccc3)nc(NCCNc3ccc(C#N)cn3)c12` [Example 9, 6-({2-[(5,7-Dimethyl-2-phenylimidazo[5,1-f][1,2,4]triazin-4-yl)amino]ethyl}amino)nicotinonitrile] returned a concentration for half-maximal inhibition (IC50) of 0.31 µM.
